From paper PMC3808539, “CtpB Assembles a Gated Protease Tunnel Regulating Cell-Cell Signaling during Spore Formation in Bacillus subtilis” (Cell, 2013)
Ends that are not written are not given here.

Columns and labels:
[1] = test system: PDZ domain of CtpB; experiment: Peptide spot assay; assay type: binding, Bacillus subtilis; settings: inverted peptide array on cellulose membrane; CtpB variants 10 μg/ml, overnight 4°C; anti-polyHis chemiluminescence
Protocol: Peptide spot libraries were generated by synthesizing the 11 C-terminal residues of 1,849 B. subtilis proteins predicted to reside in the intermembrane space onto a cellulose membrane. Membranes were blocked for 4 hr with blocking buffer (blocking reagent, Sigma-Genosys) and subsequently incubated with CtpB. Bound protein was identified using specific antibodies. Further libraries were generated, where identified peptide sequences were systematically permutated.
Peptide spot libraries were generated by synthesizing the 11 C-terminal residues of 1849 B. subtilis proteins known to reside in the intermembrane space. Peptide libraries were generated by a MultiPep SPOTrobot (INTAVIS Bioanalytical Instruments AG) using an optimized method for generating inverted peptides ([Boisguerin et al., 2007], [Volkmer, 2009]). […] Bound CtpB was detected using a mouse anti-polyHis antibody (Sigma, 1:3,000 in blocking buffer, 2 hr at RT) followed by horseradish-peroxidase conjugated anti-mouse antibody (Calbiochem, 1:2,000 in blocking buffer, 1 hr at RT). […] The signal intensities with background-subtraction were recorded as […] with a LumiImager (Boehringer) and analyzed using the LumiAnalyst software. Secondary libraries for subtitutional analyses were generated by systematically permutating identified peptides and analyzed by the described peptide spot methodology.

[2] = test system: CtpB S309A mutant; experiment: Cocrystallization of CtpB S309A with peptide; assay type: binding, Bacillus subtilis; settings: S309A/VPA complex, 1.9 Å, 20 mg/ml CtpB incubated with 1 mM peptide for 1 hr at 19°C
Protocol: CtpB crystals were grown at 19°C by the sitting-drop vapor-diffusion method using a 2:1 mixture of protein (20 mg/ml) and reservoir solution. […] Finally, diffraction data of CtpBi/VPA was collected at Deutsches Elektronen-Synchrotron (DESY, beamline P14) using a Pilatus detector (Dectris). Integration and scaling of diffraction data were performed with the programs DENZO, and [sequence]
For all other structures, phases were determined by molecular replacement using the program PHASER ([McCoy et al., 2007]) and the structure of CtpBa1 as search model. In all cases, energy restrained refinement was performed with the programs CNS ([Brünger et al., 1998]) and PHENIX ([Adams et al., 2010]), utilizing bulk solvent and anisotropic B-factor corrections depending on the development of the Rfree index. Refinement was performed in multiple cycles, interrupted for manual model re-building with the program O ([Jones et al., 1991]). Final models were verified with the program MolProbity ([Chen et al., 2010]) and crystal contacts analyzed using the PISA algorithm implemented on the Protein Data Bank Europe website ([Krissinel and Henrick, 2007]).

[3] = test system: CtpB; experiment: Degradation of in vitro translated 4FAproc constructs with distinct C termini by CtpB; assay type: biochemical, Bacillus subtilis; settings: autoradiography
Protocol: 4FAproc with alternative C-termini was produced using the promega TNT Quick Coupled Transcription/Translation System, following manufactures instructions. Briefly, 40 μl of TNT Master Mix were added to 0.5 μg of template plasmid DNA and 20 μCi of ^35S-methionine (Perkinelmer). The coupled transcription-translation reaction was carried out upon incubation at 30°C for 2 hr. Relative product amounts were normalized based on ^35S-autoradiography following SDS-PAGE analysis.
To measure the proteolytic activities of the SpoIV signaling proteases, recombinant, purified proteases (CtpB, 4B or both, 3 μM) were mixed with respective 4FA model substrates (15 μM) and incubated for various times at 25°C. Reactions were stopped by adding SDS loading buffer. Subsequently, samples were incubated for 5 min at 95°C and analyzed by SDS-PAGE and Coomassie staining. […] Reaction aliquots were stopped and analyzed as described. To compare the cleavage efficiency of various CtpB mutants, the amount of 4FAproc substrate was quantified by analyzing the stained gels using the software ImageJ ([Schneider et al., 2012]). […] Reactions were analyzed by SDS–PAGE and immunoblotting using anti-GFP antibodies ([Rudner and Losick, 2002]). […] The cleavage assays were carried out as described and analyzed by SDS-PAGE and ^35S-autoradiography using Amercham Hyperfilm™ MP films.

[4] = molecular target: T1, CtpB R168F (Bacillus subtilis, UniProt O35002, R168F); experiment: Isothermal titration calorimetry, full-length CtpB R168F; assay type: binding
T1 construct: with the full-length CtpB variants R168A, R168F and V118Y; His tag; made in house; host or cells: E. coli BL21(DE3)pLysS
T1 sequence (O35002 24-480 R168F): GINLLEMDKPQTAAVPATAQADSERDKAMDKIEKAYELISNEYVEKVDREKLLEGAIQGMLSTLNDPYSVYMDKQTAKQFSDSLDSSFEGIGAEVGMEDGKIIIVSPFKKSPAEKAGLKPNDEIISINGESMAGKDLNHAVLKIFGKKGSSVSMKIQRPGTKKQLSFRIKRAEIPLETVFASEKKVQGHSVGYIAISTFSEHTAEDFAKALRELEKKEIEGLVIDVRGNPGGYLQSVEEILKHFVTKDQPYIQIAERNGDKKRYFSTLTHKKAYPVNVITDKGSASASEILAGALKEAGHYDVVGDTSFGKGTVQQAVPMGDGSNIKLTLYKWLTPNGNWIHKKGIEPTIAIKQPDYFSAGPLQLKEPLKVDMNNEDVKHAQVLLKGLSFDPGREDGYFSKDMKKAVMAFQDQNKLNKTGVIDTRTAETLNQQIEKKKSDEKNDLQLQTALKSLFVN
Protocol: (§1) Figure S5 Peptide Binding to the PDZ Domain Stabilizes the Active Protease State of CtpB, Related to Figure 5 (A) The interfaces of the PDZ domain with the other domains of CtpB were analyzed to evaluate the prevailing conformation of CtpB in solution. The ribbon representations of CtpBi (left) and CtpBa1 (right) emphasize the PDZ domain that is shown in yellow. Interactions stabilizing the respective domain interfaces (summarized in top panel) are highlighted in orange and the residues forming hydrogen-bonds are listed. […] (B) ITC analysis characterizing the interaction of a peptide having an Ala-Tyr-Ala C terminus with the full-length CtpB variants R168A, R168F and V118Y. Raw data (top) and binding isotherm derived from the integrated heat (bottom) are shown. The determined KD dissociation constants are indicated below the binding curves. (C) Left: a ribbon model of the CtpB V118Y mutant structure, which was crystallized in the same resting conformation as CtpBi. […]
(§2) Thermodynamic values characterizing the interaction between CtpB and peptide ligands were determined by ITC (MCS-ITC; Microcal). […]
(§3) The interaction between CtpB (wild-type; mutant forms or isolated PDZ domain) and peptide ligands was characterized by ITC measurements (MCS-ITC; Microcal). […] Resulting data were analyzed with the MicroCal ORIGIN software, following the instructions of the manufacturer. […]

[5] = molecular target: T2, CtpB R168A (Bacillus subtilis, UniProt O35002, R168A); experiment: Isothermal titration calorimetry, full-length CtpB R168A; assay type: binding
T2 construct: with the full-length CtpB variants R168A, R168F and V118Y; His tag; made in house; host or cells: E. coli BL21(DE3)pLysS
T2 sequence (O35002 24-480 R168A): as the sequence (O35002 24-480 R168F) above, with F145A counted along it
Protocol: as §1, §2, §3

[6] = molecular target: T3, full-length CtpB (S309A) (Bacillus subtilis, UniProt O35002, S309A); experiment: Isothermal titration calorimetry, full-length CtpB (S309A); assay type: binding
T3 construct: the isolated PDZ domain and full-length CtpB (S309A); His tag; made in house; host or cells: E. coli BL21(DE3)pLysS
T3 sequence (O35002 24-480 S309A): as the sequence (O35002 24-480 R168F) above, with F145R, S286A counted along it
Description: (§4) Figure S4 Peptide-Binding Properties of the PDZ Domain, Related to Figure 4 (A) The C termini of B. subtilis proteins predicted to reside in the intermembrane space were synthesized on a cellulose membrane according to the method of inverted peptides. Spotted membranes were probed with either the PDZ domain of CtpB (left) or the ΔPDZ mutant (right). (B) Identified strong binding peptides were further analyzed by systematically substituting residues critical for binding to the PDZ domain of CtpB. (C) ITC analysis testing the interaction of the indicated peptides with the isolated PDZ domain and full-length CtpB (S309A). Raw data (top) and binding isotherm derived from the integrated heat (bottom) are shown. The determined KD dissociation constants are indicated below the binding curves. […] The final model is overlaid with the omit 2Fo-Fc electron density (1.9 Å resolution, contoured at 1.2 σ) calculated without peptide ligand and Arg168.
as §2, §3

[7] = molecular target: T4, isolated PDZ domain of CtpB (Bacillus subtilis, UniProt O35002); experiment: Isothermal titration calorimetry, isolated PDZ domain; assay type: binding
T4 construct: His tag; made in house; host or cells: E. coli BL21(DE3)pLysS
T4 sequence (O35002 92-182): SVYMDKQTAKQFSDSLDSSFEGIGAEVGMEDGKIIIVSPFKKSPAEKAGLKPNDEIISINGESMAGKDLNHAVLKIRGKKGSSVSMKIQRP
Description: as §4, §2, §3

Q: How did the “binding to PDZ domain in peptide spot analysis” value [1] turn out when H-NLVLAGLHSYA-OH was run?
A: Its value is “identified PDZ binder”.

Q: What does the source list for “H-EMDKPQTAAVPA-OH [oligopeptide having a Val-Pro-Ala C terminus, cocrystallized with S309A]”?
A: conformation of S309A cocrystallized with peptide [2]: active conformation; conformation of S309A cocrystallized with peptide ([2]; listed as oligopeptide having a Val-Pro-Ala C terminus): peptide binding itself is sufficient to transform the resting protease into the active conformation

Q: Which results are given for Ala-Pro-Ala?
A: degradation by CtpB (in words) ([3]; 0.3 μM wild-type CtpB, in vitro translated 35S-methionine-labeled 4FAproc constructs): rapidly degraded; efficiency in stimulating protease function ([3]; 4FAproc constructs applied at decreasing concentrations, 0.3 μM CtpB): less efficient in stimulating protease function than the Ala-Tyr-Val motif, especially at lower concentrations

Q: What does the source list for FMLLRRKAYA?
A: Kd [4]: 40 µM; Kd [5]: 21 µM; Kd [6]: 6.5 µM; Kd [7]: 2.3 µM

Q: How did the Kd [7] turn out when FMLLRRKAYV was run?
A: The Kd was 0.9 µM.
